Results: patent publication US10981917B2, “Heterocyclic compound, its preparation method, and pharmaceutical composition comprising the same” (Daewoong Pharmaceutical Co., Ltd., priority 2017, dated 2021)

Biological target: PRS (prolyl-tRNA synthetase) protein, PRS portion of EPRS (Homo sapiens (Human), UniProt P07814)
Experiment: PRS enzyme activity inhibition experiment ([3H]proline, liquid scintillation)
Assay type: biochemical
Conditions: purified PRS protein, 37° C. for 5 to 10 minutes
How it was run: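 Values are % inhibition or IC50 ranges (A ≤100 nM, B 100–500 nM, C ≥500 nM) from [3H]proline incorporation measured by liquid scintillation. PRS portion of human EPRS, reacted 5–10 min at 37 °C in pH 7.4 phosphate buffer containing 5 mM ATP and tRNA, compound at 1 μM.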

Sequence of PRS (prolyl-tRNA synthetase) protein, PRS portion of EPRS (P07814 1007-1512): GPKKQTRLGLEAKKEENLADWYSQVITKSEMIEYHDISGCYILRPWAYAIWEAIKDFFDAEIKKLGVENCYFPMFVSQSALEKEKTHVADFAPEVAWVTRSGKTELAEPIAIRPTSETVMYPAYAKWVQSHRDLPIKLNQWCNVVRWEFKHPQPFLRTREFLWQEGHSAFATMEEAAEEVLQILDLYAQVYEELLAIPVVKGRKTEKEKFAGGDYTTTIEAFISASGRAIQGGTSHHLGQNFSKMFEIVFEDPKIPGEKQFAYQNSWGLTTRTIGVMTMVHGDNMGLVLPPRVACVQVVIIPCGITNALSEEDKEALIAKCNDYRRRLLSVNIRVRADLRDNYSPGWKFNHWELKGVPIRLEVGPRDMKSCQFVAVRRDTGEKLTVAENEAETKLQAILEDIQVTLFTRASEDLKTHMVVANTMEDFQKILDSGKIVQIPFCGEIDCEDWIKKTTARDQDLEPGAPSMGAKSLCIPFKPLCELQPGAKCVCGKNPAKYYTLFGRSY

SMILES	IC50 [nM]
O=c1[nH]c2cc(Br)ccc2n1CCC[C@H]1NCCC[C@@H]1O [Example 160, 5-bromo-1-(3-((2R,3S)-3-hydroxypiperidin-2-yl)propyl)-1H-benzo[d]imidazol-2(3H)-one]	≥ 500
O=c1[nH]c2ccc(Br)cc2n1CCC[C@H]1NCCC[C@@H]1O [Example 161, 6-bromo-1-(3-((2R,3S)-3-hydroxypiperidin-2-yl)propyl)-1H-benzo[d]imidazol-2(3H)-one]	≥ 500
Cn1c(=O)c2c(ncn2CCC[C@H]2NCCC[C@@H]2O)n(C)c1=O [Example 162, 7-(3-((2R,3S)-3-hydroxypiperidin-2-yl)propyl)-1,3-dimethyl-1H-purine-2,6(3H,7H)-dione]	≥ 500
Cn1c(=O)[nH]c(=O)c2c1ncn2CCC[C@H]1NCCC[C@@H]1O [Example 163, 7-(3-((2R,3S)-3-hydroxypiperidin-2-yl)propyl)-3-methyl-1H-purine-2,6(3H,7H)-dione]	≥ 500
Cn1c(=O)[nH]c2c(ncn2CCC[C@H]2NCCC[C@@H]2O)c1=O [Example 164, 9-(3-((2R,3S)-3-hydroxypiperidin-2-yl)propyl)-1-methyl-1H-purine-2,6(3H,9H)-dione]	≥ 500
CC(C)Cn1c(=O)n(C)c(=O)c2c1ncn2CCC[C@H]1NCCC[C@@H]1O [Example 165, 7-(3-((2R,3S)-3-hydroxypiperidin-2-yl)propyl)-3-isobutyl-1-methyl-1H-purine-2,6(3H,7H)-dione]	≥ 500
O[C@H]1CCCN[C@@H]1/C=C/Cn1cnc2cc(Cl)c(Cl)cc21 [Example 166, (2R,3S)-2-((E)-3-(5,6-dichloro-1H-benzo[d]imidazol-1-yl)prop-1-enyl)piperidin-3-ol]	100 to 500
Cc1c(F)ccc2c1ncn2C/C=C/[C@H]1NCCC[C@@H]1O [Example 167, (2R,3S)-2-((E)-3-(5-fluoro-4-methyl-1H-benzo[d]imidazol-1-yl)prop-1-enyl)piperidin-3-ol]	100 to 500
Cc1c(Br)ccc2c1ncn2C/C=C/[C@H]1NCCC[C@@H]1O [Example 168, (2R,3S)-2-((E)-3-(5-bromo-4-methyl-1H-benzo[d]imidazol-1-yl)prop-1-enyl)piperidin-3-ol]	100 to 500
Cc1cc2ncn(C/C=C/[C@H]3NCCC[C@@H]3O)c2cc1C [Example 169, (2R,3S)-2-((E)-3-(5,6-dimethyl-1H-benzo[d]imidazol-1-yl)prop-1-en-1-yl)piperidin-3-ol]	≥ 500
O[C@H]1CCCN[C@@H]1/C=C/Cn1cnc2cc(Br)c(Br)cc21 [Example 170, (2R,3S)-2-((E)-3-(5,6-dibromo-1H-benzo[d]imidazol-1-yl)prop-1-en-1-yl)piperidin-3-ol]	100 to 500
O[C@H]1CCCN[C@@H]1/C=C/Cn1cnc2cc(F)c(F)cc21 [Example 171, (2R,3S)-2-((E)-3-(5,6-difluoro-1H-benzo[d]imidazol-1-yl)prop-1-en-1-yl)piperidin-3-ol]	≥ 500
Cc1ccc2c(ncn2C/C=C/[C@H]2NCCC[C@@H]2O)c1C [Example 172, (2R,3S)-2-((E)-3-(4,5-dimethyl-1H-benzo[d]imidazol-1-yl)prop-1-en-1-yl)piperidin-3-ol]	≥ 500
Cc1c(Cl)ccc2c1ncn2C/C=C/[C@H]1NCCC[C@@H]1O [Example 173, (2R,3S)-2-((E)-3-(5-chloro-4-methyl-1H-benzo[d]imidazol-1-yl)prop-1-en-1-yl)piperidin-3-ol]	100 to 500
O[C@H]1CCCN[C@@H]1/C=C/Cn1cnc2c(Cl)c(Cl)ccc21 [Example 174, (2R,3S)-2-((E)-3-(4,5-dichloro-1H-benzo[d]imidazol-1-yl)prop-1-en-1-yl)piperidin-3-ol]	≤ 100
Cc1ccc2c(ncn2C/C=C/[C@H]2NCCC[C@@H]2O)c1Cl [Example 175, (2R,3S)-2-((E)-3-(4-chloro-5-methyl-1H-benzo[d]imidazol-1-yl)prop-1-en-1-yl)piperidin-3-ol]	100 to 500
O=[N+]([O-])c1c(Br)ccc2c1ncn2C/C=C/[C@H]1NCCC[C@@H]1O [Example 176, (2R,3S)-2-((E)-3-(5-bromo-4-nitro-1H-benzo[d]imidazol-1-yl)prop-1-en-1-yl)piperidin-3-ol]	≥ 500
O=[N+]([O-])c1c(Br)ccc2ncn(C/C=C/[C@H]3NCCC[C@@H]3O)c12 [Example 177, (2R,3S)-2-((E)-3-(6-bromo-7-nitro-1H-benzo[d]imidazol-1-yl)prop-1-en-1-yl)piperidin-3-ol]	≥ 500
O=[N+]([O-])c1ccc2c(ncn2C/C=C/[C@H]2NCCC[C@@H]2O)c1Cl [Example 178, (2R,3S)-2-((E)-3-(4-chloro-5-nitro-1H-benzo[d]imidazol-1-yl)prop-1-en-1-yl)piperidin-3-ol]	100 to 500
O[C@H]1CCCN[C@@H]1/C=C/Cn1cnc2c(F)cc(F)cc21 [Example 179, (2R,3S)-2-((E)-3-(4,6-difluoro-1H-benzo[d]imidazol-1-yl)prop-1-en-1-yl)piperidin-3-ol]	100 to 500

SMILES	IC50 [nM]
Cc1cc(Cl)cc2c1ncn2C/C=C/[C@H]1NCCC[C@@H]1O [Example 180, (2R,3S)-2-((E)-3-(6-chloro-4-methyl-1H-benzo[d]imidazol-1-yl)prop-1-en-1-yl)piperidin-3-ol]	100 to 500
O[C@H]1CCCN[C@@H]1/C=C/Cn1cnc2cc(C(F)(F)F)cc(Cl)c21 [Example 181, (2R,3S)-2-((E)-3-(7-chloro-5-(trifluoromethyl)-1H-benzo[d]imidazol-1-yl)prop-1-en-1-yl)piperidin-3-ol]	100 to 500
O[C@H]1CCCN[C@@H]1/C=C/Cn1cnc2cc(Cl)cc(Cl)c21 [Example 182, (2R,3S)-2-((E)-3-(5,7-dichloro-1H-benzo[d]imidazol-1-yl)prop-1-en-1-yl)piperidin-3-ol]	≤ 100
O[C@H]1CCCN[C@@H]1/C=C/Cn1cnc2cc(Cl)cc(F)c21 [Example 183, (2R,3S)-2-((E)-3-(5-chloro-7-fluoro-1H-benzo[d]imidazol-1-yl)prop-1-en-1-yl)piperidin-3-ol]	100 to 500
O[C@H]1CCCN[C@@H]1/C=C/Cn1cnc2nc(Br)ccc21 [Example 184, (2R,3S)-2-((E)-3-(5-bromo-1H-imidazo[4,5-b]pyridin-1-yl)prop-1-en-1-yl)piperidin-3-ol]	≥ 500
O[C@H]1CCCN[C@@H]1/C=C/Cn1cnc2c(Cl)c(-c3cccc(Cl)c3)cnc21 [Example 185, (2R,3S)-2-((E)-3-(7-chloro-6-(3-chlorophenyl)-3H-imidazo[4,5-b]pyridin-3-yl)prop-1-en-1-yl)piperidin-3-ol]	≥ 500
Cc1c(Br)cnc2c1ncn2C/C=C/[C@H]1NCCC[C@@H]1O [Example 186, (2R,3S)-2-((E)-3-(6-bromo-7-methyl-3H-imidazo[4,5-b]pyridin-3-yl)prop-1-en-1-yl)piperidin-3-ol]	100 to 500
O[C@H]1CCCN[C@@H]1/C=C/Cn1cnc2c(Cl)c(Br)cnc21 [Example 187, (2R,3S)-2-((E)-3-(6-bromo-7-chloro-3H-imidazo[4,5-b]pyridin-3-yl)prop-1l-en-1-yl)piperidin-3-ol]	≤ 100
Cc1c(Cl)cnc2c1ncn2C/C=C/[C@H]1NCCC[C@@H]1O [Example 188, (2R,3S)-2-((E)-3-(6-chloro-7-methyl-3H-imidazo[4,5-b]pyridin-3-yl)prop-1-en-1-yl)piperidin-3-ol]	≥ 500
O[C@H]1CCCN[C@@H]1/C=C/Cn1cnc2c(Cl)c(Cl)cnc21 [Example 189, (2R,3S)-2-((E)-3-(6,7-dichloro-3H-imidazo[4,5-b]pyridin-3-yl)prop-1-en-1-yl)piperidin-3-ol]	100 to 500
O[C@H]1CCCN[C@@H]1/C=C/Cn1cnc2ccc(-c3cccc(Cl)c3)cc21 [Example 190, (2R,3S)-2-((E)-3-(6-(3-chlorophenyl)-1H-benzo[d]imidazol-1-yl)prop-1-en-1-yl)piperidin-3-ol]	100 to 500
O[C@H]1CCCN[C@@H]1/C=C/Cn1cnc2ccc(-c3cccc(F)c3)cc21 [Example 191, (2R,3S)-2-((E)-3-(6-(3-fluorophenyl)-1H-benzo[d]imidazol-1-yl)prop-1-en-1-yl)piperidin-3-ol]	100 to 500
O[C@H]1CCCN[C@@H]1/C=C/Cn1cnc2ccc(-c3cccc(C(F)(F)F)c3)cc21 [Example 192, (2R,3S)-2-((E)-3-(6-(3-(trifluoromethyl)phenyl)-1H-benzo[d]imidazol-1-yl)prop-1-enyl)piperidin-3-ol]	100 to 500
Cc1nc2cc(Br)c(F)c(F)c2n1C/C=C/[C@H]1NCCC[C@@H]1O [Example 193, (2R,3S)-2-((E)-3-(5-bromo-6,7-difluoro-2-methyl-1H-benzo[d]imidazol-1-yl)prop-1-en-1-yl)piperidin-3-ol]	≥ 500
O[C@H]1CCCN[C@@H]1/C=C/CN1CCc2ccccc21 [Example 194, (2R,3S)-2-((E)-3-(indolin-1-yl)prop-1-en-1-yl)piperidin-3-ol]	≥ 500
O[C@H]1CCCN[C@@H]1/C=C/CN1CCc2cc(Cl)ccc21 [Example 195, (2R,3S)-2-((E)-3-(5-chloroindolin-1-yl)prop-1-en-1-yl)piperidin-3-ol]	≥ 500
O[C@H]1CCCN[C@@H]1/C=C/Cn1ccc2cccnc21 [Example 196, (2R,3S)-2-((E)-3-(1H-pyrrolo[2,3-b]pyridin-1-yl)prop-1-en-1-yl)piperidin-3-ol]	≥ 500
O[C@H]1CCCN[C@@H]1/C=C/Cn1ccc2ccc(Cl)cc21 [Example 197, (2R,3S)-2-((E)-3-(6-chloro-1H-indol-1-yl)prop-1-en-1-yl)piperidin-3-ol]	≥ 500
O[C@H]1CCCN[C@@H]1/C=C/Cn1ncc2ccc(Cl)cc21 [Example 198, (2R,3S)-2-((E)-3-(6-chloro-1H-indazol-1-yl)prop-1-en-1-yl)piperidin-3-ol]	≥ 500
O[C@H]1CCCN[C@@H]1/C=C/Cn1ccc2c(Cl)ncnc21 [Example 199, (2R,3S)-2-((E)-3-(4-chloro-7H-pyrrolo[2,3-d]pyrimidin-7-yl)prop-1-en-1-yl)piperidin-3-ol]	≥ 500
